Results taken from paper PMC5708649, “A novel Porphyromonas gingivalis enzyme: An atypical dipeptidyl peptidase III with an ARM repeat domain” (PLoS ONE, 2017).
Where a SMILES comes first, the peptide text is derived from it. Where no end group is shown, it is not given here. The star is where a group is joined. AMC = Cc1cc(=O)oc2cc(N*)ccc12; βNA = c1ccc2cc(N*)ccc2c1

How the values were obtained:
[1] = tested on: putative DPP III from P. gingivalis strain ATCC 33277; details: recombinant protein of gene PGN_1645; cited from earlier work
From the text: (§1) Dipeptidyl peptidases of P. gingivalis have been the subject of extensive research because these exopeptidases liberate dipeptides from the amino-end of their natural substrates, and P. gingivalis is known to utilize dipeptides preferentially, instead of free amino acids, as the source of energy. Until now, beside DPP IV, which is a proven virulence factor, three other DPPs were reported: DPP5, DPP7 and DPP11 [67–69]. They are all serine peptidases, localized in the periplasm, but differ in their substrate specificity.

[2] = tested on: gingipain null-mutant KDP136 cells; details: compared to wild-type P. gingivalis ATCC 33277; cited from earlier work
From the text: as §1

[3] = tested on: DPP III fragment (1–679 aa); experiment: Kinetic analysis / specific activity of the DPP III fragment; format: biochemical, Porphyromonas gingivalis; details: for kcat/Km: DPP III fragment, pH 8.0, 100 μM CoCl2, enzyme 40–100 nM; for kcat/Km / Km / kcat: 26°C; for Km / kcat: fluorimetric, pH 8.0 Tris-HCl (ionic strength 0.01M), 100 μM CoCl2, enzyme 40–100 nM, mean of at least two independent experiments ± SD
[4] = tested on: Full length PgDPP III (1–886 aa); format: biochemical, Porphyromonas gingivalis; details: for kcat/Km: full length, pH 8.0, 100 μM CoCl2, enzyme 0.5–1 nM; for kcat/Km of PgDPP III, fold lower than human DPP III: human DPP III data ref 70
[5] = biological target: E433A variant of PgDPP III (Porphyromonas gingivalis, UniProt Q7MX92, E433A); experiment: biochemical; format: binding
[6] = tested on: PgDPP III; experiment: Substrate specificity for PgDPP III, dipeptidyl-2NA substrates; format: biochemical, Porphyromonas gingivalis; details: for substrate preference / hydrolysis rate (in words): dipeptidyl-2NA substrates; for Relative hydrolysis rate: standard colorimetric assay, 37°C, pH 8.0, 50 mM Tris-HCl (I = 0.01), 100 μM CoCl2, Arg-Arg-2NA listed as 100
Protocol: DPP III activity was determined by a standard colorimetric assay described previously using Arg-Arg-2-naphthylamide (Arg2-2NA) and Arg-Arg-7-amido-4-methylcoumarin (Arg2-AMC) as substrates, at 37°C and pH 8.0, in 50 mM Tris-HCl buffer (I = 0.01) containing 100 μM CoCl2. […] The kinetic parameters were determined from the initial reaction rates, using a nonlinear regression program (GraphPad Prism version 5.04; GraphPad, La Jolla, CA, USA).
Cloning, expression, and purification of the recombinant proteins was performed as described in the Materials and methods section. Enzyme activity was assayed using a set of synthetic dipeptide-2-naphthylamide substrates as described previously. Full-length PgDPP III and the DPP III fragment (a. acids 1–679) were purified to apparent homogeneity according to SDS-PAGE, with estimated molecular weights of 102000 and 78000, respectively, which was in agreement with their predicted molecular masses (Fig 1A). We cloned and attempted to express three C-terminal fragments of different sizes. Only one (amino acids 648–886) was detected on SDS-PAGE. However, it could not be purified as all expressed protein was in insoluble inclusion bodies. This problem was not solved by attempts to yield soluble protein by refolding from inclusion bodies.

[7] = DPP III fragment vs full length PgDPP III
[8] = fluorimetric, 26°C, pH 8.0 Tris-HCl (ionic strength 0.01M), 100 μM CoCl2, enzyme 0.5–1 nM, mean of at least two independent experiments ± SD
[9] = Arg2-2NA, yeast enzyme data ref 70

E433A variant of PgDPP III, sequence (Q7MX92 whole entry E433A): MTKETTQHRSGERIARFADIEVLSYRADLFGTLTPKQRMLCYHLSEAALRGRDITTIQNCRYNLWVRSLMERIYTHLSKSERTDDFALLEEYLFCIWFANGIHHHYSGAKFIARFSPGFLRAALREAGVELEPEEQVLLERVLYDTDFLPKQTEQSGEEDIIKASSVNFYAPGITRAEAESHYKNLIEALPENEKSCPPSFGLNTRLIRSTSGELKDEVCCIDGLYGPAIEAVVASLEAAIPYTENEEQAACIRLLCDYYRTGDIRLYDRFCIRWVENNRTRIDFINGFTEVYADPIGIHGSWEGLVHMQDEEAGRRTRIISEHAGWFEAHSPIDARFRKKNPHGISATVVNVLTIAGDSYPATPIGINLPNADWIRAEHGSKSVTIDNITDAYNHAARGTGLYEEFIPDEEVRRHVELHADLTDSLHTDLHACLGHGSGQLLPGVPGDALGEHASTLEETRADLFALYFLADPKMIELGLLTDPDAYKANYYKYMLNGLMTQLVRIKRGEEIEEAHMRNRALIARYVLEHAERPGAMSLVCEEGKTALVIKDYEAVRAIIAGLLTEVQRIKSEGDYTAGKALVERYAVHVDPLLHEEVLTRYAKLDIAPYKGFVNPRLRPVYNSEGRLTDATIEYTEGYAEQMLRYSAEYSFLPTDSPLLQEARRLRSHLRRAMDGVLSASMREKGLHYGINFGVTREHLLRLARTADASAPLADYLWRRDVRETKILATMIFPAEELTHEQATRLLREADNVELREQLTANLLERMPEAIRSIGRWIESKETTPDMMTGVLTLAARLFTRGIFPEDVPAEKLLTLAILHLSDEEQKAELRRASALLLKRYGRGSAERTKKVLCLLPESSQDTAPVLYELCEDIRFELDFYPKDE

## Cc1cc(=O)oc2cc(NC(=O)[C@H](CCCNC(=N)N)NC(=O)[C@@H](N)CCCNC(=N)N)ccc12 [Arg-Arg-AMC, Arg-Arg-7-amido-4-methylcoumarin] (H-Arg-Arg-{AMC})
[1]
  activity among dipeptidyl-AMC substrates (in words): highest activity
[2]
  hydrolysis by mutant cells (in words): defects in Arg-Arg-AMC hydrolysis
[3]; [7]
  Km increase when C-terminal domain was removed: 4 fold
  kcat reduction when C-terminal domain was removed: 120 fold
  reduction in catalytic efficiency when C-terminal domain was removed: 470 fold
[3]
  kcat/Km: 0.241 mM⁻¹ s⁻¹
  Km: 9.97 ± 0.44 µM
  kcat: 0.0024 ± 0.0014 s⁻¹
[4]; [8]
  kcat: 0.29 ± 0.11 s⁻¹
[4]; 26°C
  kcat/Km: 113.28 mM⁻¹ s⁻¹
[4]
  kcat/Km of PgDPP III, fold lower than human DPP III: 26 fold

## CC[C@H](C)[C@H](N)C(=O)N[C@H](C(=O)N[C@@H](Cc1ccc(O)cc1)C(=O)N1CCC[C@H]1C(=O)N[C@@H](Cc1c[nH]c2ccccc12)C(=O)O)C(C)C [IVYPW]
[5]
  Kd: 9.35 ± 0.73 µM

## VVYPW [tynorphin]
[5]
  Kd: 7.3 ± 0.83 µM

## CC[C@H](C)[C@H](NC(=O)[C@H](Cc1ccc(O)cc1)NC(=O)[C@@H](NC(=O)[C@H](CCCNC(=N)N)NC(=O)[C@@H](N)CC(=O)O)C(C)C)C(=O)N[C@@H](Cc1cnc[nH]1)C(=O)N1CCC[C@H]1C(=O)N[C@@H](Cc1ccccc1)C(=O)O [angiotensin II]
[5]
  Kd: 0.9 ± 0.12 µM

## N=C(N)NCCC[C@H](NC(=O)[C@@H](N)CCCNC(=N)N)C(=O)Nc1ccc2ccccc2c1 [Arg-Arg-2NA, Arg-Arg-2-naphthylamide] (H-Arg-Arg-βNA)
[3]; [7]
  Km increase when C-terminal domain was removed: 4 fold
  reduction in catalytic efficiency when C-terminal domain was removed: 1050 fold
[3]
  kcat/Km: 0.732 mM⁻¹ s⁻¹
  Km: 4.37 ± 0.42 µM
  kcat: 0.0032 ± 0.0005 s⁻¹
[3]; hydrolysis of Arg2-2NA, vs full-length PgDPP III
  specific activity of DPP III fragment, fold lower than full-length protein: 250 fold
[4]; [9]
  Km decrease, PgDPP III vs yeast counterpart: 12 fold
  kcat increase, PgDPP III vs yeast counterpart: 4.2 fold
  kcat/Km of full-length PgDPP III, fold higher than yeast counterpart: 50 fold
[4]; BtDPP III data ref 24
  Km and kcat compared to B. thetaiotaomicron DPP III (in words): similarities in Km and kcat values
[4]; [8]
  Km: 970 ± 160 nM
  kcat: 0.75 ± 0.13 s⁻¹
[4]; full length PgDPP III
  catalytic efficiency, Arg-Arg-2NA fold higher than Arg-Arg-AMC: 6.8 fold
  kcat, Arg-Arg-2NA fold higher than Arg-Arg-AMC: 2.6 fold
[4]; 26°C
  kcat/Km: 773.20 mM⁻¹ s⁻¹
[4]
  kcat/Km of PgDPP III, fold lower than human DPP III: 12 fold
[6]; listed as Arg2-2NA
  substrate preference / hydrolysis rate (in words): preference for Arg2-2NA
[6]; listed as diarginyl-2NA
  substrate preference / hydrolysis rate (in words): PgDPP III prefers diarginyl-2NA
[6]
  Relative hydrolysis rate: 100%

## NC(N)=NCCCC(NC(=O)c1ccccc1)C(=O)Nc1ccc2ccccc2c1 (stereo not shown) [BANA]
[6]
  Relative hydrolysis rate: 0%
